Assay [1] has as its system transgenic soybean plants, Arabidopsis P336A E363Q I393L L385V, event SDS-9999. Put plainly: Greenhouse testing of transgenic soybean plants, Arabidopsis P336A E363Q I393L L385V. To be noted: soybean SDS-9999, 5 days after herbicide treatment, average of 8 T1. It is filed as in vivo, Glycine max. An excerpt: (§1) Various methods for the production of stably transformed plants are well known in the art. Coumarone-derivative herbicide tolerant soybean (Glycine max) or corn (Zea mays) plants can be produced by a method described by Olhoft et al. (US patent 2009/0049567). Briefly, HPPD or HST encoding polynucleotides are cloned into a binary vector using standard cloning techniques as described by Sambrook et al. (Molecular cloning (2001) Cold Spring Harbor Laboratory Press). The final vector construct contains an HPPD or HST encoding sequence flanked by a promoter sequence (e.g. the ubiquitin promoter (PcUbi) sequence) and a terminator sequence (e.g. the nopaline synthase terminator (NOS) sequence) and a resistance marker gene cassette (e.g. AHAS) (FIG. 2). Optionally, the HPPD or HST gene can provide the means of selection. Agrobacterium-mediated transformation is used to introduce the DNA into soybean's axillary meristem cells at the primary node of seedling explants. After inoculation and co-cultivation with Agrobacteria, the explants are transferred to shoot induction medium without selection for one week. The explants are subsequently transferred to shoot induction medium with 1-3 μM imazapyr (Arsenal) for 3 weeks to select for transformed cells. Explants with healthy callus/shoot pads at the primary node are then transferred to shoot elongation medium containing 1-3 μM imazapyr until a shoot elongates or the explant dies. After regeneration, transformants are transplanted to soil in small pots, placed in growth chambers (16 hr day/8 hr night; 25° C. day/23° C. night; 65% relative humidity; 130-150 mE m−2 s−1) and subsequently tested for the presence of the T-DNA via Taqman analysis. After a few weeks, healthy, transgenic positive, single copy events are transplanted to larger pots and allowed to grow in the growth chamber. Transformation of corn plants is done by a method described by McElver and Singh (WO 2008/124495). Plant transformation vector constructs containing HPPD or HST sequences are introduced into maize immature embryos via Agrobacterium-mediated transformation. Transformed cells are selected in selection media supplemented with 0.5-1.5 μM imazethapyr for 3-4 weeks. Transgenic plantlets are regenerated on plant regeneration media and rooted afterwards. Transgenic plantlets are subjected to TaqMan analysis for the presence of the transgene before being transplanted to potting mixture and grown to maturity in greenhouse. Arabidopsis thaliana is transformed with HPPD or HST sequences by floral dip method as described by McElver and Singh (WO 2008/124495). Transgenic Arabidopsis plants are subjected to Tag Man analysis for analysis of the number of integration loci. Transformation of Oryza sativa (rice) are done by protoplast transformation as described by Peng et al. (U.S. Pat. No. 6,653,529)
(§2) Transgenic plants expressing heterologous HPPD or HST enzymes are tested for tolerance against coumarone-derivative herbicides in greenhouse experiments.
(§3) For post emergence treatment, the test plants are first grown to a height of 3 to 15 cm, depending on the plant habit, and only then treated with the herbicides. For this purpose, the test plants are either sown directly and grown in the same containers, or they are first grown separately and transplanted into the test containers a few days prior to treatment.
(§4) Depending on the species, the plants are kept at 10-25° C. or 20-35° C. The test period extends over 3 weeks. During this time, the plants are tended and their response to the individual treatments is evaluated. […] Tolerance to coumarone-derivative herbicides can also be assessed in Arabidopsis. In this case transgenic Arabidopsis thaliana plants are assayed for improved tolerance to coumarone-derivative herbicides in 48-well plates. Seeds are surface sterilized by stirring for 5 min in ethanol+water (70+30 by volume), rinsing one time with ethanol+water (70+30 by volume) and two times with a sterile, deionized water. […]

Assay [2] relates to transgenic soybean plants, Glycine Max HPPD, event SDS-10298. Put plainly: Greenhouse testing of transgenic soybean plants, Glycine Max HPPD. It is filed as in vivo. To be noted: soybean SDS-10298, 5 days after herbicide treatment, average of 8 T1.
Excerpt: as §1, §2, §3, §4

Assay [3] relates to corn plants, wild type (transgene none). As to the kind of experiment: Greenhouse testing of corn plants, wild type. To be noted: 5 days after herbicide treatment. The format is in vivo, Zea mays.
Excerpt: as §1, §2, §3, §4

Assay [4] has as its system transgenic corn plants, Arabidopsis I393L L385V, event SDM-71855. As to the kind of experiment: Greenhouse testing of transgenic corn plants, Arabidopsis I393L L385V. The format is in vivo, Zea mays. To be noted: corn SDM-71855, 5 days after herbicide treatment, average of 8 T1.
Excerpt: as §1, §2, §3, §4

`CC1(C)c2cccnc2C(O)=C(c2ccc(Cl)nc2Cl)S1(=O)=O` [Inhibitor 2, 7-(2,6-dichloro-3-pyridyl)-5,5-dimethyl-6,6-dioxo-thiopyrano[4,3-b]pyridin-8-ol]: the “Injury evaluation, scale of 1-100, bleaching phenotype” value (“Injury evaluation, scale” below) was determined as 6 in assay [1] (2.5 g/ha); 5 in assay [1] (10 g/ha); 15 in assay [1] (40 g/ha); 4 in assay [2] (2.5 g/ha); 5 in assay [2] (10 g/ha); 17 in assay [2] (40 g/ha). Further, the “Injury evaluation, scale” value in assay [3] (2.5 g/ha) was determined as 20; in assay [3] (10 g/ha) it was 45; in assay [3] (40 g/ha), 33; in assay [4] (2.5 g/ha), 7; in assay [4] (10 g/ha), 7; in assay [4] (40 g/ha) it was 25.

With `Cc1c(C(=O)c2cnn(C)c2O)ccc(S(C)(=O)=O)c1C1=NOCC1` [Topramezone, reference compound], the “Injury evaluation, scale” value in assay [1] (6.25 g/ha) worked out at 7; in assay [1] (25 g/ha), 18; in assay [1] (100 g/ha) it was 24; in assay [2] (6.25 g/ha), 7; in assay [2] (25 g/ha) it was 18; in assay [2] (100 g/ha) it was 28. Moreover, the “Injury evaluation, scale” value in assay [3] (6.25 g/ha) worked out at 0; in assay [3] (25 g/ha), 0; in assay [3] (100 g/ha), 0; in assay [4] (6.25 g/ha) it was 0; in assay [4] (25 g/ha), 0; in assay [4] (100 g/ha), 4.

These data come from US20140357487A1, “PLANTS HAVING INCREASED TOLERANCE TO HERBICIDES” (BASF SE, priority 2011, published 2014).
